pIC50: −log10 of the molar value. Read-outs that look alike come from different tables or passages of the source.
Experiments:
mouse sperm = assay: Mouse sperm total motility in vitro (CASA); format: cell-based; details: for Emax: Mus musculus, Sperm, 1 h, nanomolar range concentration, read-out: Maximal Motility Inhibition (%); for Emax / Shape of inhibitory dose response on sperm motility: mouse sperm total motility
Procedure: To characterize the SAR of these compounds, we first evaluated their effects on total sperm motility in vitro. Sperm isolated from the cauda epididymis of mice were incubated with the test compounds in modified Whitten’s medium under non-capacitating conditions. Motility was assessed using a computer-assisted sperm analysis (CASA) system.
All experimental protocols involving animals used in this work were approved by the University of Kansas Medical Center Institutional Animal Care and Use Committee (ACUP number: 22-09-26, 10/2022). C57BL/6 mice were purchased from Harlan (Indianapolis, IN, USA). Spermatozoa were isolated from the cauda of adult mouse epididymis in Whitten’s medium, containing 100 mM NaCl, 4.7 mM KCl, 1.2 mM KH2PO4, 1.2 mM MgSO4, 5.5 mM glucose, 0.8 mM pyruvic acid, 4.8 mM lactic acid, and 40 mM Hepes, as previously described.
Spermatozoa (1 × 10^6 cells) were incubated at 37 °C in 100 μL of Whitten’s medium, with the addition of 1.7 mM CaCl2 and in the absence and presence of different amounts of the tested compounds for 60 min. Then, cells were labeled with the fluorescent nucleic acid stain SYTO 21, which allows for the tracking of the movement of the cell head. After 1 min of incubation with the dye, 5.5 μL aliquots from each sample were taken and placed into a glass cell chamber (Leja Products B.V., Nieuw-Vennep, The Netherlands). Sperm were maintained at 37 °C on a heated platform and viewed with an Olympus BX51 microscope (Olympus, Center Valley, PA, USA) through a 20× phase objective. Images of the moving sperm were captured using a CCD camera. Samples were analyzed by CASA using the Minitube SpermVision Digital Semen Evaluation system (version 3.5; Penetrating Innovations, Verona, WI, USA). An average of 200 cells/field were captured, at a rate of 30 frames per field, and a total of 10 fields in each sample were analyzed. Total sperm motility was obtained from sperm maintained in a non-capacitating medium, while for assessing the hyperactive pattern of motility, typical of sperm capacitation, cells were incubated in Whitten’s medium with the addition of 1.7 mM CaCl2, 25 mM sodium bicarbonate, and 0.5% bovine serum albumin.
(§1) Figure 2 Effect of simplified steroidal analogs on mouse sperm total motility. Sperm was isolated from the cauda epididymis and treated in the absence and presence of the indicated concentrations of each compound. After one hour of incubation, sperm motility was determined by CASA. Values are expressed as the mean ± SEM of three determinations.
as §1, with “4” for “2”, “non-steroidal small compounds” for “simplified steroidal analogs”, “1 h” for “one hour”

MDCK cell permeability = details: dog, MDCK; for Papp A→B / recovery: MDCK cells; for Papp A→B: BSA 0% for controls, 0.5% for 13
Caco-2 cell permeability = format: in vitro ADME, human; details: human; for Papp A→B / recovery: Caco-2, Caco-2 cells; for Papp A→B: read-out: Papp (A-B); for Papp B→A / efflux ratio: Caco-2 cells; for efflux ratio: Papp(B-A)/Papp(A-B)
Procedure: The in vitro permeability and potential to be transported by P-gp (P-glycoprotein) were determined in a Caco-2 or MDCK cell line. Values are reported for a mass recovery > 60%. The efflux ratio was determined as follows: P^app(B-A)/Papp(A-B). The experimental details are reported in the Supporting Information (Tables S2–S5).
The recovery can be determined using the following equation:
Recovery%=(VA×[drug]acceptor+VD×[drug]donor)/(VD×[drug]initial, donor)
Where VA is the volume (in mL) in the acceptor well (0.235 mL for Ap→Bl flux, and 0.075 mL for
Bl→Ap), VD is the volume (in mL) in the donor well (0.075 mL for Ap→Bl flux, and 0.235 mL for
The leakage of Lucifer Yellow, in unit of percentage (%), can be calculated using the following
%LY leakage = 100×[LY]acceptor×0.3/([LY]donor×0.1+[LY]acceptor×0.3)
LY leakage of <1% is acceptable to indicate the well-qualified MDCK/ Caco-2 monolayer.
Table S5 . The Assessment of Caco-2 Cell Monolayer Integrity
The apparent permeability coefficient (Papp), Efflux ratio (ER), recovery percentage, and LY leakage percentage can be
calculated for Caco-2 Cell drug transport assays using the above equations. […]

[1] = simplified steroid analogs, mouse sperm motility
[2] = non-steroidal small molecules, mouse sperm motility

C[C@]12CC[C@H]3[C@@H](CC=C4C[C@@H](O)CC[C@@]43C)[C@@H]1CC[C@@H]2c1c[nH]nn1 [Compound 15, (3S,8S,9S,10R,13S,14S,17S)-10,13-Dimethyl-17-(1H-1,2,3-triazol-4-yl)-2,3,4,7,8,9,10,11,12,13,14,15,16,17-tetradecahydro-1H-cyclopenta[a]phenanthren-3-ol]
Emax (mouse sperm; simplified steroid analogs): 42%
Shape of inhibitory dose response on sperm motility (mouse sperm): monotonic inhibitory response
pIC50 (mouse sperm; [1]): 10.72
IC50 (pM) (mouse sperm; [1]): sub-nanomolar range

C[C@]12CC[C@H](OC(=O)[C@@H](N)CCCCN)CC1=CCC1C2CC[C@@]2(C)C1CC[C@@H]2c1cn(Cc2ccccc2)nn1.Cl.Cl (stereo partly drawn) [Compound 19, (3S,10R,13S,17S)-17-(1-Benzyl-1H-1,2,3-triazol-4-yl)-10,13-dimethyl-2,3,4,7,8,9,10,11,12,13,14,15,16,17-tetradecahydro-1H-cyclopenta[a]phenanthren-3-yl L-Lysinate Dihydrochloride]
Emax (mouse sperm; simplified steroid analogs): ~37%
Shape of inhibitory dose response on sperm motility (mouse sperm): biphasic inhibition
pIC50 (mouse sperm; [1]): 10.49

C[C@]12CC[C@H]3[C@@H](CC=C4C[C@@H](O)CC[C@@]43C)[C@@H]1CC[C@H]2n1cc(-c2ccccc2)nn1 [Compound 24, (3S,8R,9S,10R,13S,14S,17R)-10,13-Dimethyl-17-(4-phenyl-1H-1,2,3-triazol-1-yl)-2,3,4,7,8,9,10,11,12,13,14,15,16,17-tetradecahydro-1H-cyclopenta[a]phenanthren-3-ol]
Emax (mouse sperm; simplified steroid analogs): 50%
Shape of inhibitory dose response on sperm motility (mouse sperm): biphasic inhibition
pIC50 (mouse sperm; [1]): 10.82

C[C@]12CC[C@H]3[C@@H](CC=C4C[C@H](N5CCOCC5)CC[C@@]43C)[C@@H]1CC[C@H]2n1cc(-c2ccccc2)nn1 [Compound 26, 4-((3R,8R,9S,10R,13S,14S,17R)-10,13-Dimethyl-17-(4-phenyl-1H-1,2,3-triazol-1-yl)-2,3,4,7,8,9,10,11,12,13,14,15,16,17-tetradecahydro-1H-cyclopenta[a]phenanthren-3-yl)morpholine]
Emax (mouse sperm; simplified steroid analogs): ~40%
Shape of inhibitory dose response on sperm motility (mouse sperm): biphasic inhibition
pIC50 (mouse sperm; [1]): 10.51

C[C@]12CCC(=O)C=C1CC[C@@H]2c1cn(Cc2ccccc2)nn1 [Compound 33, (1S,7aR)-1-(1-Benzyl-1H-1,2,3-triazol-4-yl)-7a-methyl-1,2,3,6,7,7a-hexahydro-5H-inden-5-one]
Emax (mouse sperm; non-steroidal small molecules): 48%
pIC50 (mouse sperm; [2]): 10.64

CC12CCC(=O)C=C1CCC2c1c[nH]nn1 [Compound 35, (1S,7aR)-7a-Methyl-1-(1H-1,2,3-triazol-4-yl)-1,2,3,6,7,7a-hexahydro-5H-inden-one]
Emax (mouse sperm; non-steroidal small molecules): 47%
pIC50 (mouse sperm; [2]): 10.15

CC12CCC(=NN=C(N)N)C=C1CCCC2c1cn(Cc2ccccc2)nn1 (centres unmarked) [Compound 40, N’-(5-(1-Benzyl-1H-1,2,3-triazol-4-yl)-4a-methyl-4,4a,5,6,7,8-hexahydronaphthalen-2(3H)-ylidene)amidinohydrazone]
Emax (mouse sperm; non-steroidal small molecules): 49%
pIC50 (mouse sperm; [2]): 10.22

CC12CCC(=NN=C(N)N)C=C1CCC2C=NN=C(N)N [Compound 41, (E+Z)-2-(((1S,7aR,E)-5-(2-Carbamimidoylhydrazineylidene)-7a-methyl-2,3,5,6,7,7a-hexahydro-1H-inden-1-yl)methylene)hydrazine-1-carboximidamide, reference compound]
Emax (mouse sperm; non-steroidal small molecules): 44%
pIC50 (mouse sperm; [2]): 10.43

CC12CCC(=NN=C(N)N)C=C1CCCC2C=NN=C(N)N (centres unmarked) [Compound 42, (E+Z)-2-((6-(2-Carbamimidoylhydrazineylidene)-8a-methyl-1,2,3,4,6,7,8,8a-octahydronaphthalen-1-yl)methylene)hydrazine-1-carboximidamide]
Emax (mouse sperm; non-steroidal small molecules): 49%
pIC50 (mouse sperm; [2]): 9.52

C[C@H]1O[C@@H](O[C@H]2[C@@H](O)C[C@H](O[C@H]3[C@@H](O)C[C@H](O[C@H]4CC[C@@]5(C)[C@H](CC[C@@H]6[C@@H]5C[C@@H](O)[C@]5(C)[C@@H](C7=CC(=O)OC7)CC[C@]65O)C4)O[C@@H]3C)O[C@@H]2C)C[C@H](O)[C@@H]1O [Digoxin]
Papp B→A (MDCK cell permeability): 3.29 ×10⁻⁶ cm/s
efflux ratio (MDCK cell permeability): 3.26
Papp A→B (MDCK cell permeability): 1.01 ×10⁻⁶ cm/s
recovery (MDCK cell permeability; Recovery (%) AP-BL): 84%
recovery (MDCK cell permeability; Recovery (%) BL-AP): 106%
Papp A→B (Caco-2 cell permeability): 0.63 ×10⁻⁶ cm/s
recovery (Caco-2 cell permeability; read-out: Recovery (%) AP-BL): 88.7%
recovery (Caco-2 cell permeability; read-out: Recovery (%) BL-AP): 107%
Papp B→A (Caco-2 cell permeability): 18.8 ×10⁻⁶ cm/s
efflux ratio (Caco-2 cell permeability): 30

COCCc1ccc(OCC(O)CNC(C)C)cc1 (centres unmarked) [Metoprolol]
Papp B→A (MDCK cell permeability): 17 ×10⁻⁶ cm/s
efflux ratio (MDCK cell permeability): 0.79
Papp A→B (MDCK cell permeability): 21.6 ×10⁻⁶ cm/s
recovery (MDCK cell permeability; Recovery (%) AP-BL): 83.5%
recovery (MDCK cell permeability; Recovery (%) BL-AP): 97.1%

COc1cc2nc(N3CCN(C(=O)c4ccco4)CC3)nc(N)c2cc1OC [Prazosin]
Papp A→B (Caco-2 cell permeability): 7.59 ×10⁻⁶ cm/s
recovery (Caco-2 cell permeability; read-out: Recovery (%) AP-BL): 71.4%
recovery (Caco-2 cell permeability; read-out: Recovery (%) BL-AP): 85%
Papp B→A (Caco-2 cell permeability): 24.3 ×10⁻⁶ cm/s

CC(C)NCC(O)COc1cccc2ccccc12 (centres unmarked) [Propranolol]
Papp A→B (Caco-2 cell permeability): 24.4 ×10⁻⁶ cm/s
recovery (Caco-2 cell permeability; read-out: Recovery (%) AP-BL): 72.8%
recovery (Caco-2 cell permeability; read-out: Recovery (%) BL-AP): 86.6%
Papp B→A (Caco-2 cell permeability): 16.4 ×10⁻⁶ cm/s
efflux ratio (Caco-2 cell permeability): 0.67
